# Data from the supplement of paper PMC10307832.
# Compound: C=C(c1ccc(C(=O)O)cc1)c1cc2c(cc1C)C(C)(C)CCC2(C)C [Bexarotene] + Cc1cc(Nc2cc(N3CCN(C)CC3)nc(Sc3ccc(NC(=O)C4CC4)cc3)n2)n[nH]1 [Tozasertib] (partner 0.1 µM)
# Assay: relative viability (nuclei count vs DMSO), 5 days (fraction); higher = more cells survive
# Summary of the method: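 One day after seeding in 1536-well plates, lung cancer cell lines were dosed by pin tool. Dosing was either single-drug or a fixed anchor-drug dose plus five library-drug doses (not always all listed) in √10 steps. After 5 days, nuclei were stained in one fix-and-stain step and counted on 4× images, and relative viability is the nuclei count of treated wells over that of vehicle wells, given as the median of duplicate plates.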
Cell Line,relative viability (first compound 0.08 µM),relative viability (first compound 0.253 µM),relative viability (first compound 0.8 µM),relative viability (first compound 2.53 µM),relative viability (first compound 8 µM)
201T,0.926,0.86,0.891,0.92,0.808
A-427,0.203,0.202,0.193,0.202,0.183
ABC-1,0.19,0.175,0.21,0.197,0.196
BEN,0.462,0.475,0.499,0.444,0.493
CAL-12T,0.264,0.309,0.227,0.276,0.244
COR-L23,0.242,0.238,0.238,0.204,0.219
COR-L 105,0.395,0.328,0.324,0.442,0.388
ChaGo-K-1,0.259,0.234,0.264,0.223,0.223
EKVX,0.361,0.42,0.389,0.46,0.325
EMC-BAC-2,0.311,0.315,0.274,0.277,0.283
EPLC-272H,0.278,0.262,0.307,0.286,0.341
H3255,0.696,0.612,0.578,0.731,0.618
HARA,0.0906,0.0857,0.156,0.0749,0.0939
HCC-15,0.357,0.531,0.415,0.44,0.34
HCC-44,1.34,1.07,0.925,0.842,0.82
HCC-78,0.401,0.483,0.414,0.435,0.413
HCC-366,0.169,0.118,0.119,0.0858,0.113
HCC-827,0.444,0.395,0.433,0.402,0.366
HOP-62,0.352,0.366,0.408,0.391,0.363
LC-2-ad,0.438,0.503,0.408,0.41,0.434
LCLC-97TM1,0.251,0.192,0.206,0.189,0.221
LCLC-103H,0.531,0.452,0.428,0.48,0.43
LK-2,0.175,0.162,0.185,–,0.165
LOU-NH91,0.643,0.624,0.665,0.637,0.598

Cell Line,relative viability (first compound 0.08 µM),relative viability (first compound 0.253 µM),relative viability (first compound 0.8 µM),relative viability (first compound 2.53 µM),relative viability (first compound 8 µM)
LU99A,0.291,0.252,0.296,0.234,0.284
LXF-289,0.166,0.196,0.213,0.137,0.141
NCI-H23,0.383,0.619,0.365,0.287,0.333
NCI-H322M,0.508,0.505,0.488,0.475,0.445
NCI-H358,0.0977,0.105,0.0984,0.108,0.121
NCI-H441,0.709,0.758,0.631,0.676,0.656
NCI-H460,0.541,0.452,0.481,0.399,0.427
NCI-H520,0.409,0.454,0.411,0.417,0.382
NCI-H596,0.998,0.897,0.788,0.934,0.837
NCI-H647,0.351,0.432,0.257,0.279,0.324
NCI-H650,0.747,0.724,0.721,0.789,0.687
NCI-H661,0.387,0.357,0.348,0.355,0.341
NCI-H727,0.622,0.584,0.76,0.64,0.618
NCI-H838,0.269,0.301,0.267,0.278,0.271
NCI-H1355,0.492,0.531,0.54,0.492,0.512
NCI-H1395,0.754,0.77,0.746,0.687,0.799
NCI-H1437,0.382,0.395,0.396,0.421,0.382
NCI-H1648,0.453,0.559,0.307,0.492,0.384
NCI-H1650,0.483,0.541,0.55,0.397,0.419
NCI-H1651,0.929,0.64,0.741,0.594,0.791
NCI-H1666,0.658,0.611,0.52,0.558,0.668
NCI-H1734,0.281,0.244,0.26,0.285,0.257
NCI-H1755,0.624,0.607,0.637,0.638,0.622
NCI-H1793,0.308,0.319,0.394,0.287,0.337

Cell Line,relative viability (first compound 0.08 µM),relative viability (first compound 0.253 µM),relative viability (first compound 0.8 µM),relative viability (first compound 2.53 µM),relative viability (first compound 8 µM)
NCI-H1915,0.465,0.492,0.425,0.339,0.376
NCI-H1944,0.323,0.29,0.307,0.299,0.257
NCI-H1975,0.809,0.875,0.846,0.73,0.879
NCI-H1993,0.544,0.576,0.604,0.527,0.613
NCI-H2009,0.753,0.897,0.814,0.815,0.778
NCI-H2023,0.395,0.385,0.417,0.328,0.283
NCI-H2085,0.865,0.834,0.728,0.771,0.767
NCI-H2087,0.254,0.314,0.211,0.179,0.258
NCI-H2126,0.881,0.869,0.793,0.818,0.829
NCI-H2170,0.729,0.631,0.654,0.63,0.614
NCI-H2228,0.241,0.262,0.226,0.205,0.229
NCI-H2342,0.552,0.57,0.429,0.473,0.512
NCI-H2347,0.625,0.668,–,0.585,0.623
NCI-H2405,0.786,0.752,0.54,0.759,0.715
NCI-H3122,0.431,0.492,0.425,0.471,0.476
PC-3 [JPC-3],0.905,0.889,0.758,0.862,0.755
PC-14,0.626,0.778,0.649,0.576,0.66
RERF-LC-KJ,0.459,0.585,0.415,0.467,0.542
SK-LU-1,0.284,0.346,–,0.358,0.321
SK-MES-1,0.907,0.95,0.784,0.832,0.573
SW 900,0.559,0.617,0.589,0.498,0.431
SW 1573,0.219,0.171,0.251,0.162,0.224
UMC-11,0.224,0.202,0.202,0.21,0.221
